# Where a SMILES comes first, the peptide text is derived from it. The star is where a group is joined. FITC = O=C1OC2(c3ccc(O)cc3Oc3cc(O)ccc32)c2ccc(NC(=S)*)cc21
# Legend:
# [1] = tested on: skin of SD rats; assay: transdermal penetration effect on back skin of SD rats, fluorescence microscopy of skin sections; type: in vivo; conditions: 50 μL of 500 μmol/L FITC-labeled peptide solution applied on back skin, three hours
# Protocol: The experiments were performed using 8-week old SD rats (body weight 250 g). The back of SD rats was shaved, and the FITC-labeled peptide and control peptide prepared in Example 1 were each dissolved in a phosphate buffer (PBS, pH=7.4) to prepare a solution having a concentration of 500 μmol/L. The SD rats were divided into three groups, including: 1) a control group, in which no polypeptide solution was applied on the back; 2) a control group, in which the peptide as shown in SEQ ID NO: 3 was applied on the dorsal epidermis of rats; and 3) a treatment group, in which the peptide as shown in SEQ ID NO: 1 was applied on the back skin of rats. The rats in Groups 2) and 3) were each applied with 50 μL of the polypeptide solution. After three hours, the polypeptide in the applied area was washed off; the SD rats were sacrificed, and the skin applied with the polypeptide was taken, frozen, sectioned, and then observed under a fluorescence microscope.
# [2] = isoelectric point of the transdermal peptide; type: physicochemical
Compound,fluorescence in the dermal tissue of the skin [1],isoelectric point [2]
"CC[C@H](C)[C@H](NC(=O)[C@H](CC(=O)O)NC(=O)[C@H](CCCCN)NC(=O)[C@H](CO)NC(=O)[C@H](Cc1c[nH]c2ccccc12)NC(=O)[C@H](C)NC(=O)[C@H](CC(C)C)NC(=O)[C@H](Cc1c[nH]cn1)NC(=O)[C@H](CC(=O)O)NC(=O)[C@H](CCC(=O)O)NC(=O)[C@@H](NC(=O)[C@H](CO)NC(=O)[C@H](CC(=O)O)NC(=O)[C@@H](NC(=O)[C@H](CO)NC(=O)[C@H](CC(C)C)NC(=O)[C@H](C)NC(=O)[C@@H](NC(=S)Nc1ccc2c(c1)C(=O)OC21c2ccc(O)cc2Oc2cc(O)ccc21)[C@@H](C)CC)[C@@H](C)CC)C(C)C)C(=O)N[C@@H](CC(N)=O)C(=O)N[C@@H](C)C(=O)O [irrelevant control polypeptide, reference compound] ({FITC}-IALSIDSVEDHLAWSKDINA-OH)",no green fluorescence in the dermal tissue,
"transdermal peptide with a nuclear localization ability: transdermal peptide with amino acid sequence as shown in SEQ ID NO: 1, enters eukaryotic cells autonomously (KKLFPKGVFTKELPSGKKYLR; Transdermal peptide)",,10.92
CC(C)C[C@H](NC(=O)[C@H](Cc1ccc(O)cc1)NC(=O)[C@H](CCCCN)NC(=O)[C@H](CCCCN)NC(=O)CNC(=O)[C@H](CO)NC(=O)[C@@H]1CCCN1C(=O)[C@H](CC(C)C)NC(=O)[C@H](CCC(=O)O)NC(=O)[C@H](CCCCN)NC(=O)[C@@H](NC(=O)[C@H](Cc1ccccc1)NC(=O)[C@@H](NC(=O)CNC(=O)[C@H](CCCCN)NC(=O)[C@@H]1CCCN1C(=O)[C@H](Cc1ccccc1)NC(=O)[C@H](CC(C)C)NC(=O)[C@H](CCCCN)NC(=O)[C@H](CCCCN)NC(=S)Nc1ccc2c(c1)C(=O)OC21c2ccc(O)cc2Oc2cc(O)ccc21)C(C)C)[C@@H](C)O)C(=O)N[C@@H](CCCNC(=N)N)C(=O)O [peptide of the present invention] ({FITC}-KKLFPKGVFTKELPSGKKYLR-OH),clearly observed in the skin appendages of the dermis,
